Reference: the supplement of paper PMC10307832

How the values were obtained:
Experiment in all cases: relative viability (nuclei count vs DMSO), 5 days (fraction); higher = more cells survive
[1] = compound: CC1=CC=C(C=C1)C(=O)CN2C3=C(CCCC3)SC2=N [Pifithrin_alpha] + Cc1nc(NC(=O)N2CCC[C@H]2C(N)=O)sc1-c1ccnc(C(C)(C)C(F)(F)F)c1 [Alpelisib] (partner 2 µM)
Outline: (§1)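 Nuclei were stained with Hoechst during a one-step fixation (final 0.05% Triton X-100, 1% formaldehyde, 1 ug/ml Hoechst) carried out 5 days after dosing, then counted on 4× images. The cells, lung cancer lines in 1536-well plates, had been dosed by pin tool the day after seeding with one drug alone or a fixed anchor-drug dose plus five library-drug doses (not always all listed) in √10 steps. Relative viability is the nuclei count in treated wells divided by that in vehicle wells, and each value is the median of duplicate plates.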

Axitinib + Trametinib = compound: CNC(=O)c1ccccc1Sc1ccc2c(/C=C/c3ccccn3)n[nH]c2c1 [Axitinib] + CC(=O)Nc1cccc(-n2c(=O)n(C3CC3)c(=O)c3c(Nc4ccc(I)cc4F)n(C)c(=O)c(C)c32)c1 [Trametinib] (partner 0.02 µM)
Outline: as §1

Axitinib + Vorinostat = compound: CNC(=O)c1ccccc1Sc1ccc2c(/C=C/c3ccccn3)n[nH]c2c1 [Axitinib] + O=C(CCCCCCC(=O)Nc1ccccc1)NO [Vorinostat] (partner 1 µM)
Outline: as §1

Bemcentinib + Dasatinib = compound: Nc1nc(Nc2ccc3c(c2)CC[C@@H](N2CCCC2)CC3)nn1-c1cc2c(nn1)-c1ccccc1CCC2 [Bemcentinib] + Cc1nc(Nc2ncc(C(=O)Nc3c(C)cccc3Cl)s2)cc(N2CCN(CCO)CC2)n1 [Dasatinib] (partner 0.075 µM)
Outline: as §1

Cell Line	relative viability ([1]; first compound 1 µM)	relative viability ([1]; first compound 3.162 µM)	relative viability ([1]; first compound 10 µM)	relative viability ([1]; first compound 31.62 µM)	relative viability ([1]; first compound 100 µM)	relative viability (Axitinib + Trametinib; first compound 0.005 µM)	relative viability (Axitinib + Trametinib; first compound 0.01581 µM)	relative viability (Axitinib + Trametinib; first compound 0.05 µM)	relative viability (Axitinib + Trametinib; first compound 0.1581 µM)	relative viability (Axitinib + Trametinib; first compound 0.5 µM)	relative viability (Axitinib + Vorinostat; first compound 0.005 µM)	relative viability (Axitinib + Vorinostat; first compound 0.01581 µM)	relative viability (Axitinib + Vorinostat; first compound 0.05 µM)	relative viability (Axitinib + Vorinostat; first compound 0.1581 µM)	relative viability (Axitinib + Vorinostat; first compound 0.5 µM)	relative viability (Bemcentinib + Dasatinib; first compound 0.04 µM)	relative viability (Bemcentinib + Dasatinib; first compound 0.1265 µM)	relative viability (Bemcentinib + Dasatinib; first compound 0.4 µM)	relative viability (Bemcentinib + Dasatinib; first compound 1.265 µM)	relative viability (Bemcentinib + Dasatinib; first compound 4 µM)
COR-L 105	0.948	0.909	0.902	0.683	0.768	0.478	0.414	0.446	0.452	0.466	0.958	0.794	0.874	0.825	0.818	0.317	0.328	0.329	0.404	0.272
RERF-LC-KJ	0.983	0.791	0.807	0.707	0.682	0.952	0.91	0.875	0.833	0.966	0.703	0.648	0.725	0.705	0.803	0.847	0.923	1.02	0.964	0.85
NCI-H2405		0.723	0.718	0.675	0.665	0.635	0.56	0.513	0.594	0.576	1.01	1.03	1.18	0.953	1.13	0.194	0.22	0.21	0.215	0.165
UMC-11	1.09	1.07	1.05	0.842	1.16	0.709	0.668	0.572	0.691	0.616	0.323	0.339	0.401	0.408	0.36	0.462	0.563	0.559	0.466	0.476
PC-14	0.952	0.953	0.975	0.771	0.848	0.763	0.789	0.879	0.759	1.04	0.792	0.336	0.702	0.643	1.06	0.236	0.259	0.249	0.224	0.236
HCC-78	0.295	0.337	0.352		0.296	0.955	0.683	0.518	0.615	0.986	0.437	0.407	0.333	0.348	0.404	0.403	0.201	0.433		0.363
A-427	0.756	1.04	1.03	0.836	1	0.89	0.711	0.758	0.761	0.879	0.909	0.929	0.864	0.903	0.956	0.719	0.737	0.68	0.707	0.691
HCC-827	0.878	1.03	0.919	0.626	0.823	0.572	0.519	0.552	0.548	0.518	0.809	0.505	0.863	0.746	0.925	0.305	0.385	0.273	0.4	0.3
EPLC-272H		0.965	0.914	0.934	1.02	0.312	0.273	0.255	0.249	0.289	0.341	0.359	0.498	0.481	0.459	0.285	0.389	0.332	0.393	0.364
SK-MES-1	0.882	0.955	0.851	0.626	0.775	0.553	0.562	0.569	0.485	0.581	1.1	1.12	1.25	1.02	1.27	0.303	0.416	0.384	0.477	0.426
NCI-H520	1.02	1.24	0.698	0.472	0.842	0.704	0.542	0.733	0.541	0.686	0.797	0.678	0.686	0.691	0.801	0.197	0.194	0.257	0.206	0.23
BEN	1.01	1.19	1.14	0.965	1.22	1.33	1.04	0.885	0.992	1.01	0.609	0.637	0.635	0.592	0.551	0.272	0.37	0.317	0.22	0.241
LK-2	1.06	1.03	1.02		1.56	0.773	0.631	0.515	0.726	0.547	0.343	0.292	0.209	0.301	0.232	0.248	0.246	0.31	0.27	0.349
NCI-H2087	1.05	1.04	0.862	0.671	0.884	0.206	0.182	0.196	0.21	0.242	0.618	0.626	0.741	0.699	0.936	0.797	1.02	0.949	0.901	0.929
NCI-H661	0.528	0.552	0.623	0.63	0.73	0.594	0.5	0.578	0.556	0.583	0.79	0.861	0.776	0.779	0.873	0.77	0.877	0.924	0.832	0.913
NCI-H2170	0.799	0.821	0.756	0.537	0.744	0.925	0.926	0.875	0.917	1.08	0.898	0.85	0.896	0.739	0.799	0.485	0.664	0.603	0.477	0.589
